Data as given in PubChem BioAssay (NCI).
Values joined by “and” are separate entries in the source; they are usually repeats but may differ in a detail not shown here. Equal entries are not always repeated.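 Test compounds were applied to cells in 96-well plates for 48 hours at 5 doses. The concentration for 50% growth inhibition is given as GI50. TGI marks complete inhibition of growth.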

Key:
Test in all cases: NCI tumour cell line growth inhibition, 48 h
MALME-3M melanoma = tested on: MALME-3M melanoma
SW-620 colon = tested on: SW-620 colon
NCI-H226 lung = tested on: NCI-H226 lung
UO-31 renal = tested on: UO-31 renal
NCI/ADR-RES ovarian = tested on: NCI/ADR-RES ovarian
SK-MEL-2 melanoma = tested on: SK-MEL-2 melanoma
MCF7 breast = tested on: MCF7 breast
T-47D breast = tested on: T-47D breast
786-0 renal = tested on: 786-0 renal
HCT-15 colon = tested on: HCT-15 colon

SMILES | GI50 (MALME-3M melanoma) | TGI (MALME-3M melanoma) [µM] | GI50 (SW-620 colon) | TGI (SW-620 colon) [µM] | GI50 (NCI-H226 lung) | TGI (NCI-H226 lung) [µM] | GI50 (UO-31 renal) | TGI (UO-31 renal) | GI50 (NCI/ADR-RES ovarian) | TGI (NCI/ADR-RES ovarian) | GI50 (SK-MEL-2 melanoma) [µM] | TGI (SK-MEL-2 melanoma) [µM] | GI50 (MCF7 breast) | TGI (MCF7 breast) [µM] | GI50 (T-47D breast) | TGI (T-47D breast) [µM] | GI50 (786-0 renal) | TGI (786-0 renal) | GI50 (HCT-15 colon) | TGI (HCT-15 colon)
O=[N+]([O-])/C=C\c1ccc2c(c1)OCO2 | 14.6 µM | 32.9 | 2.07 µM | 4.91 | 13.8 µM | 53 | 1.59 µM | 3.2 µM | 10.3 µM | 29.3 µM | 2.2 | 4.99 | 1.99 µM | 10.4 | 5.27 µM | 26.2 | 1.84 µM | 3.52 µM | 2.46 µM | 6.68 µM
CC1(C)C(=O)/C(=C\c2ccco2)C[C@]2(C)[C@H]3CC=C4[C@@H]5C[C@](C)(C(=O)O)CC[C@]5(C)CC[C@@]4(C)[C@]3(C)CC[C@@H]12 | 12.7 µM | 29.3 | 10.2 µM | 25.9 | 9.92 µM | 37 | 5.01 µM | 19.9 µM | 10 µM | 29.2 µM | 15.1 | 36.8 | 5.42 µM | 26.2 | 5.66 µM | 35.1 | 9.51 µM | 25 µM | 5.26 µM | 18.8 µM
O=C(O)C(Cc1ccc(O)c([N+](=O)[O-])c1)N1C(=O)c2ccccc2C1=O (stereo not drawn) |  | > 100 |  | > 100 |  | > 100 |  | > 100 µM |  | > 100 µM |  | > 100 |  | > 100 |  | > 100 |  | > 100 µM |  | > 100 µM
Cc1ccc2c(c1)sc(-c1ccc(N(C)C)cc1)[n+]2C | 1.38 µM | 15.4 | 2.28 µM | > 66 | 3.26 µM | > 100 | 18.9 µM | > 100 µM | > 95.8 µM | > 100 µM | 4.25 | > 38 | 0.745 µM | 28.3 | 0.299 µM | 5.59 | 3.69 µM | > 45.9 µM | 18.8 µM | > 100 µM
O=C(Nc1ccc(Br)cc1)c1cc(Br)cc(Br)c1O | 2.15 µM | 5.63 | 3.39 µM | 12.6 | 3.45 µM | 12.3 | 3.1 µM | 11.5 µM | 2.94 µM | 9.47 µM | 2.27 | 6.12 | 2.46 µM | > 100 | 2.74 µM | 28.4 | 3.02 µM | 29.7 µM | 3.2 µM | 13.5 µM
Cn1cnc([N+](=O)[O-])c1Sc1ncnc2nc[nH]c12 | 4.22 µM and 34.9 µM | > 100 | 18.8 µM and 32.1 µM | > 100 | 7.17 µM and > 27.2 µM | > 100 | 2.39 µM and 14.8 µM | > 100 µM | 3.27 µM and 5.39 µM | > 100 µM |  | > 100 | 2.92 µM and 3.69 µM | > 100 | 2.75 µM and 4.51 µM | > 100 | 3.25 µM and 3.77 µM | > 100 µM | 14.2 µM and 19.6 µM | > 100 µM
CCCCS(=N)(=O)CC[C@H](N)C(=O)O (stereo partly drawn) | > 8490 µM | > 10000 | 3710 µM | > 10000 | > 10000 µM | > 10000 | > 10000 µM | 2700 µM and > 10000 µM | 1770 µM | 5000 µM and > 6020 µM | > 7640 | > 10000 | > 10000 µM | > 10000 | > 10000 µM | > 10000 |  | 434 µM and > 2460 µM | > 6960 µM | 4940 µM and > 10000 µM
